For 6 compounds, Ki, IC50 and EC50 results are on record in ChEMBL document CHEMBL5512615, “Targeting autophagy drug discovery: Targets, indications and development trends” (Eur J Med Chem, 2024).

What is called Ki is a dissociation constant, usually derived from enzyme kinetics or from competition with a known ligand. A higher Ki goes with weaker binding. Broadly, the IC50 is the concentration at which inhibition is half-maximal. As a reminder, the EC50 is the concentration that produces a half-maximal response.

Assay [1] addresses T1, Patatin-like phospholipase domain-containing protein 2 (Homo sapiens, UniProt Q96AD5).
T1 sequence (Q96AD5 whole entry): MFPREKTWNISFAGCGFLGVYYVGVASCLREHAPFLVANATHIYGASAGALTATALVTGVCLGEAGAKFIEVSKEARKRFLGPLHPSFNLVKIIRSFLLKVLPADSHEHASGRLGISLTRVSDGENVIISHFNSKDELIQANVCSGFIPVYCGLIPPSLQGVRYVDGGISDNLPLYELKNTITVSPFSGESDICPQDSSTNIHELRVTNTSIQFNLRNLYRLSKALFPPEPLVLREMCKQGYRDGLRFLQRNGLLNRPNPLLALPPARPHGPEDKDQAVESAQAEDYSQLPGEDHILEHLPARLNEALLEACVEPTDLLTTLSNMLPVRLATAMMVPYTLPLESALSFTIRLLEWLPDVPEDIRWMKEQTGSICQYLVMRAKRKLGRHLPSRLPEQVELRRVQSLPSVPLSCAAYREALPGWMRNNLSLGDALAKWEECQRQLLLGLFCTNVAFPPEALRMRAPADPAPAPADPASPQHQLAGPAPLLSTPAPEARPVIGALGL
Description: Inhibition of ATGL ubiquitination in human HepG2 cells assessed as inhibition constant

The target of assay [2] is Ubiquitin carboxyl-terminal hydrolase 10 (Homo sapiens, UniProt Q14694). In words: Inhibition of USP10 (unknown origin).
The target of assay [3] is T2, Ubiquitin carboxyl-terminal hydrolase 13 (Homo sapiens, UniProt Q92995).
T2 sequence (Q92995 whole entry): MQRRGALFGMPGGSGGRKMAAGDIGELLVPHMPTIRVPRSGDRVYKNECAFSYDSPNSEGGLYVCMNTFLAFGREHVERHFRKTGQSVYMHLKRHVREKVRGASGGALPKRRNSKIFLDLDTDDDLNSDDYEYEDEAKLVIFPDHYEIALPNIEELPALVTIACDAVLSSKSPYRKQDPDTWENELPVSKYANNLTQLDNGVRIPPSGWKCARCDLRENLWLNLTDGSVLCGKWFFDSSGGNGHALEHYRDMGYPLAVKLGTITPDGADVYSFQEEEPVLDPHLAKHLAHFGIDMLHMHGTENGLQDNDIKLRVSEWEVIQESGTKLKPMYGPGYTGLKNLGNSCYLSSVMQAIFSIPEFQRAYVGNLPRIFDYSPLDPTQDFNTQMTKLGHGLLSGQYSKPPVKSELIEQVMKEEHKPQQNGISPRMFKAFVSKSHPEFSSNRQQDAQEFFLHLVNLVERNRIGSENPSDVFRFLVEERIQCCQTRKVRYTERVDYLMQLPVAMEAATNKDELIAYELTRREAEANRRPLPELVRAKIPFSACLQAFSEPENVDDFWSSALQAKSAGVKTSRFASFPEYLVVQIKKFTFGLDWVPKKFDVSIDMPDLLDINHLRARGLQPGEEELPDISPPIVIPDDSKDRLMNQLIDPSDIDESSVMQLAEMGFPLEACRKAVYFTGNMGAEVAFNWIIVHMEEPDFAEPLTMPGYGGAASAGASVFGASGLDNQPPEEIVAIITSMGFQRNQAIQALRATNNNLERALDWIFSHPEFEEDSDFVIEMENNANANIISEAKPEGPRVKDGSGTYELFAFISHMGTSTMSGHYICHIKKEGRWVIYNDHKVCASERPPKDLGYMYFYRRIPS
Description: Inhibition of USP13 (unknown origin)

For assay [4], the target named is Ferritin heavy chain (Homo sapiens, UniProt P02794).
Description: Inhibition of FTH1 (unknown origin)
For assay [5], the target named is GABA-A receptor; anion channel.
Description: Inhibition of GABA receptor (unknown origin)
Assay [6] relates to A549. Nature of the assay: cells. To be noted: Homo sapiens.
Description: Antiproliferative activity against human A549 cells assessed as reduction in cell viability by MTT assay
The target in assay [7] is Serine/threonine-protein kinase mTOR (Homo sapiens, UniProt P42345).
Description: Inhibition of human mTORC1 incubated for 90 mins by Lanthascreen time-resolved FRET assay

Sequence of Ubiquitin carboxyl-terminal hydrolase 10 (Q14694 whole entry): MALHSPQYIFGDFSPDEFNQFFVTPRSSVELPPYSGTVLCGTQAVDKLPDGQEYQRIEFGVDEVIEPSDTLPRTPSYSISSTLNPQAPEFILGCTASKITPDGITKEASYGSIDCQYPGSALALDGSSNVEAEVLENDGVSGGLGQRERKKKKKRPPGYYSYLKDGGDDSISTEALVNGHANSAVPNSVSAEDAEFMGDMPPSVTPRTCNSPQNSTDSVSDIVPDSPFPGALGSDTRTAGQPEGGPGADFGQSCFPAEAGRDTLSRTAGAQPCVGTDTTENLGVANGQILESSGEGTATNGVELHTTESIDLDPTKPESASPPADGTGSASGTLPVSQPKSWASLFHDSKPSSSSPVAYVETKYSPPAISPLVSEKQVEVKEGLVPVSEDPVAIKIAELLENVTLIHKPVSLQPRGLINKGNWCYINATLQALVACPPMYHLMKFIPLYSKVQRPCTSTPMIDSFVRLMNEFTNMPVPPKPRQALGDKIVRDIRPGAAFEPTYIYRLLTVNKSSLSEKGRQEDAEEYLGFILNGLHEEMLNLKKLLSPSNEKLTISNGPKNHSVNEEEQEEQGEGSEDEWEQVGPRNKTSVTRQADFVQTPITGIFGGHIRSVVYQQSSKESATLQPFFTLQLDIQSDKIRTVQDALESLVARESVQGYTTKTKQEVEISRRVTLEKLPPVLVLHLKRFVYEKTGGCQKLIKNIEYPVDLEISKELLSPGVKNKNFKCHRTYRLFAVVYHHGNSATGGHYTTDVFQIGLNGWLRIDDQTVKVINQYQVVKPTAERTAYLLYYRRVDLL
Sequence of Ferritin heavy chain (P02794 whole entry): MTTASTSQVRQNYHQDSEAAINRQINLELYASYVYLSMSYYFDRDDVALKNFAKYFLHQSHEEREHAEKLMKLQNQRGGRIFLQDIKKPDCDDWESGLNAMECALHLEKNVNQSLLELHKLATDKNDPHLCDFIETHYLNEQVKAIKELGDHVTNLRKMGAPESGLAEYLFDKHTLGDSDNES

In assay [1], `N[C@@H]1CCCN(c2c(/C=C3\SC(=O)NC3=O)cccc2-c2ccccc2)C1` gave a Ki of 0.017 nM.
For `Fc1ccc(CNc2ncnc3ccc(F)cc23)cc1`, the figures for the IC50 in assay [2] and in assay [3] were 580 nM and 690 nM, respectively.
In assay [4], `C=C1CC[C@H]2O[C@]2(C)CC[C@@H]2[C@@H]1CC2(C)C` [(-)-CARYOPHYLLENE OXIDE] showed an IC50 of 1 nM.
For the compound `C[C@H]1[C@H](C)CC[C@]2(C(=O)O)CC[C@]3(C)C(=CC[C@@H]4[C@@]5(C)C[C@@H](O)[C@H](O)[C@@](C)(CO)[C@@H]5CC[C@]43C)[C@H]12` [ASIATIC ACID], the IC50 in assay [5] stood at 5900 nM. This lies in the single-digit micromolar range.
`OC[C@H]1O[C@@H](c2ccc(Cl)c(Cc3ccc(O[C@H]4CCOC4)cc3)c2)[C@H](O)[C@@H](O)[C@@H]1O` [EMPAGLIFLOZIN] displayed an EC50 in assay [6] of 3 nM.
As for `CO[C@H]1C[C@@H]2CC[C@@H](C)[C@@](O)(O2)C(=O)C(=O)N2CCCC[C@H]2C(=O)O[C@H]([C@H](C)C[C@@H]2CC[C@@H](OCCO)[C@H](OC)C2)CC(=O)[C@H](C)/C=C(\C)[C@@H](O)[C@@H](OC)C(=O)[C@H](C)C[C@H](C)/C=C/C=C/C=C/1C` [EVEROLIMUS], the IC50 in assay [7] amounted to 150 nM.
